In one experiment the target is Procathepsin L (Homo sapiens, UniProt P07711).
The target of a further experiment is Aspartyl aminopeptidase (Plasmodium falciparum 3D7, UniProt Q8I2J3).
The nature of experiment [1]: Luminescence Cell-Based Dose Retest to Confirm Inhibitors of Cancer Stem Cells. [Related pubchem assays (depositor defined):AID2717, AID2721]. To be noted: Homo sapiens. The class given is functional.
Experiment [2] in a line: Luminescence-based dose response cell-based high throughput screening assay for cytotoxic compounds using the IEC-6 intestinal epithelial cell line. [Related pubchem assays: 1858 (Summary AID.), 1825 (Counterscreen.), 1907 (Confirmation screen.)]. The class given is functional. A general note: Counterscreens check selectivity or assay interference.
Experiment [3] relates to BJ. The experiment can be described thus: BJ-TERT-LT-ST fibroblast viability loss – cell-based, RAS-independent, luminescence, dose response (AID 1935).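 Note: BJ fibroblasts immortalized with TERT plus LT and ST oncogenes.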 The class given is functional. To be noted: Homo sapiens.
A short description of experiment [4]: luciferase reporter signal suppression in cells – H4 neuroglioma cells, luminescence, dose response (AID 1990). It is filed as functional, cell-based. Background: Reporter assays use an easily measured gene product as a stand-in for the process of interest.
A short description of another experiment: cells. It is filed as functional, cell-based.
Experiment [5] is described as follows: alpha-synuclein stem-loop translation blockers – luminescence, H4 neuroglioblastoma cells, dose confirmation, confirmation (AID 2454).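 Note: H4 neuroglioblastoma cells carrying an alpha-synuclein 5'UTR luciferase reporter; potency for inhibition of the luciferase signal.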 The class given is functional, cell-based.
A short description of experiment [6]: Luminescence Cell-Based Dose Response HTS to Identify Inhibitors of 5'UTR Stem-Loop Driven Prion Protein mRNA Translation in H4 Neuroglioblastoma Cells. [Related pubchem assays: 1827 (Project Summary), 1813 (Primary HTS)]. The class given is functional.
The subject of experiment [7] is BJ. Put plainly: BJ-TERT fibroblast viability loss – cell-based, RAS-independent, luminescence, dose response (AID 1933). The class given is functional. To be noted: Homo sapiens.
The nature of experiment [8]: luciferase reporter signal reduction – luminescence, H4-C neuroglioblastoma cells, dose response (AID 2458).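 Note: H4 neuroglioblastoma cells stably carrying a luciferase reporter gene fusion.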 It is filed as functional, cell-based.
Experiment [9] concerns BJ. Put plainly: cells. The class given is functional, cell-based. To be noted: Homo sapiens.
Experiment [10] has as its system BJ. Put plainly: growth inhibition of engineered Ras-driven BJ cells – cell-based, alamar blue fluorescence, cherrypicked samples, dose response (AID 2631).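 Note: confirmatory dose-response assay in RAS-dependent BJ fibroblasts engineered with TERT, LT and ST, with cytotoxicity read by fluorescence.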 It is filed as functional. The following applies: Homo sapiens.
Experiment [11] in a line: DRD fibroblast viability loss – cell-based, non-viral oncogenic, luminescence, dose response (AID 1934). To be noted: Homo sapiens. The class given is functional.
Experiment [12] can be described thus: alpha-synuclein stem-loop luciferase translation blockers – H4 neuroglioma cells, luminescence, confirmation (AID 1988). The class given is functional, cell-based.
A further experiment has as its target Genome polyprotein (dengue virus type 2, UniProt P29990). The experiment can be described thus: flavivirus cap methylation enzyme inhibition – biochemical, confirmation dose response, primary screen (AID 588689). It is filed as functional.
Experiment [13] can be described thus: A cytotoxicity screen of small molecule inhibitors of the PhoP region in Salmonella typhi identified in the primary screen. [Related pubchem assays: 1850, 1864, 1985 ]. The class given is functional.
The target of experiment [14] is Epstein-Barr nuclear antigen 1 (Epstein-Barr virus (strain B95-8) (HHV-4) (Human herpesvirus 4), UniProt P03211). The experiment can be described thus: inhibition of EBV nuclear antigen 1 DNA binding – biochemical, fluorescence polarization, 1536-well, dose response (AID 2381).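 Note: fluorescence polarization of a Cy5 DNA probe bound by EBNA-1 protein.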 More on the design: species or system human gammaherpesvirus 4.
The target in experiment [15] is Lytic switch protein BZLF1 (Epstein-Barr virus (strain B95-8) (HHV-4) (Human herpesvirus 4), UniProt P03206). Put plainly: inhibition of BZLF1 ZTA DNA binding – biochemical, fluorescence polarization, Epstein-Barr virus, 1536-well, counter-screen for EBNA-1 inhibitor project, dose response (AID 2377).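 Note: fluorescence polarization of Cy5-labelled ZRE DNA probe bound by purified Zta.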 More on the design: species or system human gammaherpesvirus 4. (In general: Polarisation of emitted light reports the rotation of a fluorescent probe.)

Experiment [16] is described as follows: fluconazole-exposed Candida albicans growth modulators – fluorescence, retest, confirmation (AID 2467). It is filed as functional, cell-based.
The nature of experiment [17]: NIH-3T3 fibroblast cytotoxicity, dose response, cytotoxicity control, cell-based, fluorescence, Alamar Blue, secondary assay (AID 2327).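 Note: NIH-3T3 mouse fibroblasts cultured with fluconazole at 8 µg/mL.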 It is filed as functional.
The target of experiment [18] is T1, Polyadenylate-binding protein 1 (Homo sapiens, UniProt P11940). Put plainly: MLLE binding blockers, Cy5 peptide tracer – biochemical, fluorescence polarization, Cy5-PAM2 peptide, secondary, miRNA deadenylation inhibitor project, dose response (AID 602260). To be noted: read-out: IC50_Mean. It is filed as functional.
Experiment [19] addresses T1, Polyadenylate-binding protein 1. The experiment can be described thus: MLLE domain peptide-binding blockers, IC50 – biochemical, fluorescence polarization, FITC-PAM2 peptide, dose response (AID 602259). The class given is functional. To be noted: read-out: IC50_Mean.
Experiment [20] addresses T2, RNA-binding protein pos-1 (Caenorhabditis elegans, UniProt G5EF15).
T2 sequence (G5EF15 whole entry): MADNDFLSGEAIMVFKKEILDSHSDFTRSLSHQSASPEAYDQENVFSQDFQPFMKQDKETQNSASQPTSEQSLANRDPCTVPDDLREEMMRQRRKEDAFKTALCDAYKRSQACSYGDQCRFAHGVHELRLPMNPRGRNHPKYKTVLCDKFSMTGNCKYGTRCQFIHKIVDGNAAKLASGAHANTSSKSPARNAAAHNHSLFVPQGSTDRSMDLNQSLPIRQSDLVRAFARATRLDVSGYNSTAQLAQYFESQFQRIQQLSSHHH
The experiment can be described thus: disruptors of C. elegans POS-1 RNA interaction – biochemical, fluorescence polarization, dose response (AID 1964).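 Note: purified POS-1 fused to maltose binding protein made in E. coli; potency of compounds blocking POS-1 binding to fluorescent RNA.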

The target in the next experiment is Large T antigen (Simian virus 40, UniProt P03070). The class given is functional, Betapolyomavirus macacae.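 Note: Confirmatory-stage PubChem screen for compounds that inhibit SV40 T antigen.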
In experiment [21] the target is T3, Mannose-6-phosphate isomerase (Homo sapiens, UniProt P34949).
T3 sequence (P34949 whole entry): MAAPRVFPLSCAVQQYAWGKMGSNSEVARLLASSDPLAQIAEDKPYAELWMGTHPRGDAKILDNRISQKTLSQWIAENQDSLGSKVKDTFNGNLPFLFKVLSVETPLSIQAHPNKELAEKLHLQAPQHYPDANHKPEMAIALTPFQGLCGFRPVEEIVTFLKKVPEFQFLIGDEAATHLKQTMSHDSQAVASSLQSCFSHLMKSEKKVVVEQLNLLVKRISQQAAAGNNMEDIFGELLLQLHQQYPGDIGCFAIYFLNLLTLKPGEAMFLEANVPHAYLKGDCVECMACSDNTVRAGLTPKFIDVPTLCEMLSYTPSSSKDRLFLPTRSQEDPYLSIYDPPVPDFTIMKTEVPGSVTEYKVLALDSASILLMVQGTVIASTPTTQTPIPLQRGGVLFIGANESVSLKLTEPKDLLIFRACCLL
The experiment can be described thus: MPI enzyme activity inhibition – biochemical, fluorescence intensity, coupled assay, primary screen (AID 1209).

In experiment [22] the target is T3, Mannose-6-phosphate isomerase. Put plainly: MPI inhibition at elevated mannose 6-phosphate – biochemical, fluorescence intensity, high mannose 6-phosphate, primary screen (AID 1220).
The next experiment deals with T4, Protein RecA (Mycobacterium tuberculosis, UniProt P9WHJ3).
T4 sequence (P9WHJ3 whole entry): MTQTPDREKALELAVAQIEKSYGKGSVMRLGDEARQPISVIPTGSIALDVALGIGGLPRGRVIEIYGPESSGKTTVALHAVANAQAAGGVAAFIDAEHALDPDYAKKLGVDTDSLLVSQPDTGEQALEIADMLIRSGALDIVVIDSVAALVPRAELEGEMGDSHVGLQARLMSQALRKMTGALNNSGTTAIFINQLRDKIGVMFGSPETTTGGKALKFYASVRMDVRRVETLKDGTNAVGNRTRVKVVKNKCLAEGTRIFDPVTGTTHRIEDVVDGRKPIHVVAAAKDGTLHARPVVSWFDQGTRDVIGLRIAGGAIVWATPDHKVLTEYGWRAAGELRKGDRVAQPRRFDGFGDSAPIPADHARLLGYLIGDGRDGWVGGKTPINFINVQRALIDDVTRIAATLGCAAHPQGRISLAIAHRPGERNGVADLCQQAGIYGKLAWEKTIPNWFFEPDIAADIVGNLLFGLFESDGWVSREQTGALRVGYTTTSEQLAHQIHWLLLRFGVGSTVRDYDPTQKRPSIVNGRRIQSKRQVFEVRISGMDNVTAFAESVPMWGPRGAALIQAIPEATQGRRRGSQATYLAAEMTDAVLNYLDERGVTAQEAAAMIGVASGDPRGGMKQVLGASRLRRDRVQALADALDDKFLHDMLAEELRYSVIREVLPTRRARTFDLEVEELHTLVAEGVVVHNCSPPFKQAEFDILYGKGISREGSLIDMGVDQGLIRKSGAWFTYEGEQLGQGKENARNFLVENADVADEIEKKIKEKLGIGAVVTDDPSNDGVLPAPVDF
The experiment can be described thus: Fluorescence Cell-Free Homogeneous Dose Retest to Identify Inhibitors of RecA-Intein Splicing Activity. [Related pubchem assays (depositor defined):AID2097, AID2223, AID489010, AID492950]. It is filed as functional.

Experiment [23] addresses T5, Replicative DNA helicase DnaB (Mycobacterium tuberculosis, UniProt P9WMR3).
T5 sequence (P9WMR3 whole entry): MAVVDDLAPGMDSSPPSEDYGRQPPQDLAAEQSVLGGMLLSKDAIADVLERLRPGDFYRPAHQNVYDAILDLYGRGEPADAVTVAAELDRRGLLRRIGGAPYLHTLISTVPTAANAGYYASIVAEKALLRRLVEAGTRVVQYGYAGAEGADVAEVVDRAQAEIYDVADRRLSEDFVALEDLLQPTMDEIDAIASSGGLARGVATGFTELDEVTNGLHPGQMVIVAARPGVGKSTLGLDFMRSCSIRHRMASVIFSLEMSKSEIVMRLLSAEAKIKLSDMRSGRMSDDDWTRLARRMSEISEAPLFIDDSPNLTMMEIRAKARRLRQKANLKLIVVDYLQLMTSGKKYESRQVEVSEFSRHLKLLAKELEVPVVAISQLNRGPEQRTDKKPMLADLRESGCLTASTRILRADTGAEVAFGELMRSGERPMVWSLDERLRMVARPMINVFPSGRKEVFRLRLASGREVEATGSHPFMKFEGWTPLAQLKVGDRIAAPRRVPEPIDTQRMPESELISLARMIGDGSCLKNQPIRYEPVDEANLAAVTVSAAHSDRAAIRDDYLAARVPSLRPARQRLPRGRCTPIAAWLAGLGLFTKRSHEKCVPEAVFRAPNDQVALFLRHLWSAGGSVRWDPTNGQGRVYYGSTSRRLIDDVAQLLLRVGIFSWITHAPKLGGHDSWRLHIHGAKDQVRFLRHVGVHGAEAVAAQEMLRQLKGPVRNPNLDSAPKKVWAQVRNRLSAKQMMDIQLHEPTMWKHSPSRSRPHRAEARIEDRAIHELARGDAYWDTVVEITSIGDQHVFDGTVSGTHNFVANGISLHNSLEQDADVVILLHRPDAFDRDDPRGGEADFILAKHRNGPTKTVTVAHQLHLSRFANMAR
Put plainly: DnaB intein splicing inhibitors, dose response, biochemical, cell-free fluorescence (AID 449749). It is filed as functional.

The source made the active and inactive calls.

Sequence of Lytic switch protein BZLF1 (P03206 whole entry): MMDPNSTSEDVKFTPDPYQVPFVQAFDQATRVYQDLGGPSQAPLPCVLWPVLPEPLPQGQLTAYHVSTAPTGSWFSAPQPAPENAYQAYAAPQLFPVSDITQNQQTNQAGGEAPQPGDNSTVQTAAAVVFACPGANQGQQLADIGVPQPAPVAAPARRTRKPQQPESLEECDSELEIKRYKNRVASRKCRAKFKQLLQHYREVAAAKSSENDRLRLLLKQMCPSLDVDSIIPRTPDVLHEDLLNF
Sequence of Epstein-Barr nuclear antigen 1 (P03211 whole entry): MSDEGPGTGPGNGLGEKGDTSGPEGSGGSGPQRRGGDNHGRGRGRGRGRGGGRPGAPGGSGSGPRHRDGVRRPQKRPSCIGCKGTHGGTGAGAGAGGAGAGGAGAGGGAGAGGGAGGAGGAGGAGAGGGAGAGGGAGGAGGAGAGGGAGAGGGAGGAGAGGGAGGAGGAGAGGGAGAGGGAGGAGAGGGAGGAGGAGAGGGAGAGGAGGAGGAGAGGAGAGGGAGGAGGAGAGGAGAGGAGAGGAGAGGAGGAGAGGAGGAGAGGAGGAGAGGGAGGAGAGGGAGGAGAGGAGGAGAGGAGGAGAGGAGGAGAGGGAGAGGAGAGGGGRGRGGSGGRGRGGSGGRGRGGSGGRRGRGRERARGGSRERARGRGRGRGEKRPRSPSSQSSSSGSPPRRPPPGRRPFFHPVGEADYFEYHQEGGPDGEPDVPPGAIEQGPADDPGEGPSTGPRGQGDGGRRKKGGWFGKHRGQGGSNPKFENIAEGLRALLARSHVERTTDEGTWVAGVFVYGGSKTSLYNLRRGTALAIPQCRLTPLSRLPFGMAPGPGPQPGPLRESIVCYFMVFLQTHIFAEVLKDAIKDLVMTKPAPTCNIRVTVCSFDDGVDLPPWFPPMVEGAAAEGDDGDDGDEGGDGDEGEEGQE
Sequence of Aspartyl aminopeptidase (Q8I2J3 whole entry): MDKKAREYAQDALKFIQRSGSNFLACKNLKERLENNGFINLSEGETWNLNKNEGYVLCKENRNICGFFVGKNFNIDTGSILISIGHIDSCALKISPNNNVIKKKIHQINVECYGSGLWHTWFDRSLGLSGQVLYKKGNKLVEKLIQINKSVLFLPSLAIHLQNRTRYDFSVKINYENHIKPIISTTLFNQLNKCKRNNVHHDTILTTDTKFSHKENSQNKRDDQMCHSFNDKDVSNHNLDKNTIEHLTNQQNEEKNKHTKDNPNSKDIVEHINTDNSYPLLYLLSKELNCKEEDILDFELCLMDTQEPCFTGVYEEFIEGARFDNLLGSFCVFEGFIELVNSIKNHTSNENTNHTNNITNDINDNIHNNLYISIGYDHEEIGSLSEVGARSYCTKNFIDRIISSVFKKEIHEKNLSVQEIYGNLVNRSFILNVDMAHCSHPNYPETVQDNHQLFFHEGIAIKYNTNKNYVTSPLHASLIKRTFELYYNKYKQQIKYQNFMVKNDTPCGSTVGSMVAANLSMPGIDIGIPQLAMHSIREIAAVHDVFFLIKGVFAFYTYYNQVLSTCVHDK
Sequence of Procathepsin L (P07711 whole entry): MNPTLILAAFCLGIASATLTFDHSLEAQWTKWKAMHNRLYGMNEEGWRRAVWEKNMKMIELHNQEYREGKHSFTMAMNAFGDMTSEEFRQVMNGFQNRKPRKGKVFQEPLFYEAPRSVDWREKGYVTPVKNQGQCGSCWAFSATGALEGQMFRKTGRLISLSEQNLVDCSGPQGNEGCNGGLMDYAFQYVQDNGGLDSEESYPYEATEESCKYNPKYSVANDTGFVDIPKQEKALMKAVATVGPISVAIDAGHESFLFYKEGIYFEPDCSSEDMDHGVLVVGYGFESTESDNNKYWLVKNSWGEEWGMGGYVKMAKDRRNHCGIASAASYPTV
T1 sequence (P11940 whole entry, the tested form may be a part): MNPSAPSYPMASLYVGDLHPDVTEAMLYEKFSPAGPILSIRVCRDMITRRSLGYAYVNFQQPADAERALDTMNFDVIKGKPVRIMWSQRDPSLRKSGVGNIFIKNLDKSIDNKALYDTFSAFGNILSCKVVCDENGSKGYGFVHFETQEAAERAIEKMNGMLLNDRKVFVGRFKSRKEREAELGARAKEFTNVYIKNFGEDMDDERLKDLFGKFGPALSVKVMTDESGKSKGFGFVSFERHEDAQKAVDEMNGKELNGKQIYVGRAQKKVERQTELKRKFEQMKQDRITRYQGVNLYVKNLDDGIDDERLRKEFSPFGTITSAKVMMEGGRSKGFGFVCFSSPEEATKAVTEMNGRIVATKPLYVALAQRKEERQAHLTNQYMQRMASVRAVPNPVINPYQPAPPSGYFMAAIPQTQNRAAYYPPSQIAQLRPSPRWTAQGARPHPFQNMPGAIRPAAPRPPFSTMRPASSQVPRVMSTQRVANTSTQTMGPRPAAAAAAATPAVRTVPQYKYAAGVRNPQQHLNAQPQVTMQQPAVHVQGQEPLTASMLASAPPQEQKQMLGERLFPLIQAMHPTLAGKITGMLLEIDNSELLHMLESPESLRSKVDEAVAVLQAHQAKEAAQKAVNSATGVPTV
Sequence of Genome polyprotein (P29990 2492-3391 limits assumed): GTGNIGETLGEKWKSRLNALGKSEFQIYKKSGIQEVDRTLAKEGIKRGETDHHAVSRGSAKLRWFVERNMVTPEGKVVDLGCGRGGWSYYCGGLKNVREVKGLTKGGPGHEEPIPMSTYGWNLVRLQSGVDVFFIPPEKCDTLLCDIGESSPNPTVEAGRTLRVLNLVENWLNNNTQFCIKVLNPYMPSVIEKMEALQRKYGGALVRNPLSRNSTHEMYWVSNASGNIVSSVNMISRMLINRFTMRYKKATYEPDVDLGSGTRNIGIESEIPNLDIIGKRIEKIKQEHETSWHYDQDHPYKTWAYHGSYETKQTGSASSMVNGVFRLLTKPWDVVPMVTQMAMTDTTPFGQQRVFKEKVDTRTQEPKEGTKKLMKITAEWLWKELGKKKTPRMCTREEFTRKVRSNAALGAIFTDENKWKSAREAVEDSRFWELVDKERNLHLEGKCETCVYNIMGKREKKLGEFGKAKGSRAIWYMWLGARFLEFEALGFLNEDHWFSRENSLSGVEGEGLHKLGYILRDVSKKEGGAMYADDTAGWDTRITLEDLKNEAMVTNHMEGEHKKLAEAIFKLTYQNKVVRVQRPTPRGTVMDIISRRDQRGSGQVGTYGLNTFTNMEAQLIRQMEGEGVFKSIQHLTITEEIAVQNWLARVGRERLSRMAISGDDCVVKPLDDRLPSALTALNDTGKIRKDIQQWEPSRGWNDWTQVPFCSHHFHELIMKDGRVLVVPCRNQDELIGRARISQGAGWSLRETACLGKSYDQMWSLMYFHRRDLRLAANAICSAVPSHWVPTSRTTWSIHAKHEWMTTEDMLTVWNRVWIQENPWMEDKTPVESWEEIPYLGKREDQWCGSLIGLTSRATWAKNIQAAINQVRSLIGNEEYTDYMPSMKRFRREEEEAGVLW
Sequence of Large T antigen (P03070 whole entry): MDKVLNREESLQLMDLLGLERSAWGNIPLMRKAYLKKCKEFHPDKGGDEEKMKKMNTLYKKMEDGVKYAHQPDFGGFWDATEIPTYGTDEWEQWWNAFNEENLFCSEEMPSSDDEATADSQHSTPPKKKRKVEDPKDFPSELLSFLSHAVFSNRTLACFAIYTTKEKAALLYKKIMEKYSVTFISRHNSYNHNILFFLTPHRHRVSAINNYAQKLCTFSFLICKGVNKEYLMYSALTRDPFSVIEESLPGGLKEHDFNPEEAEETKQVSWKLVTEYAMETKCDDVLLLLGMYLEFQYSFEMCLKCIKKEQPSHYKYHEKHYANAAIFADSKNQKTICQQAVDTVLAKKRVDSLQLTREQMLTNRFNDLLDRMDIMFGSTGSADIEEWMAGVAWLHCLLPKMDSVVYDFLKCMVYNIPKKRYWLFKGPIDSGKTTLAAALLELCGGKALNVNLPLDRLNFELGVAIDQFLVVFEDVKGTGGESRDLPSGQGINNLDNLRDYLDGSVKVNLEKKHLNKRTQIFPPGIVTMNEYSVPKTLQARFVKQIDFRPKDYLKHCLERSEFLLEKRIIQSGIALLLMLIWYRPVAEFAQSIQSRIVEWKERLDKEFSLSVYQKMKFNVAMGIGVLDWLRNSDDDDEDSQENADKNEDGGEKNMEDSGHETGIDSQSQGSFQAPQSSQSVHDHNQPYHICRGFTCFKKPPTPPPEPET

For `COCC(C)NC(=O)NC1(C(F)(F)F)Oc2ccc(Cl)cc2O1` (stereo not given), the results for the IC50 against Procathepsin L and on Aspartyl aminopeptidase were > 59.6 µM (not active) and 1.79 µM (active), respectively. Further, in [1], the AC50 (in general, the midpoint of the concentration-response curve, whichever way the signal moves) is 6.69 µM (active).

`O=C(NCCOc1cccnc1)c1ccc(OC2CCN(Cc3ccccn3)CC2)cc1`: the IC50 in experiment [2] is 0.0533 µM (active). Further, the EC50 – broadly, the concentration that produces a half-maximal response – was 0.543 µM (inconclusive) in the experiment with BJ [3]; 0.158 µM (active) in experiment [4]; 0.577 µM (active) in “cells”; 0.623 µM (active) in experiment [5]; 0.202 µM (inconclusive) in experiment [6]; 78.3 µM (active) with BJ [7]. Besides, the EC50 in experiment [8] was 0.821 µM (active); in the experiment with BJ [9], 0.334 µM (inconclusive); in the experiment on BJ [10], 0.254 µM (active); in experiment [11], 3.96 µM (active); in [12] it was < 0.1 µM (active).

Regarding `COc1cc(/C=C(/C#N)C(=O)Nc2ccccc2)c(Br)cc1OCc1ccc(C(=O)O)cc1`, the IC50 on Genome polyprotein was 66.6 µM (active). Besides, in experiment [13], the EC50 is > 50 µM (active).

For the compound `Cc1ccccc1N(C(=O)c1snc(C(N)=O)c1N)C(C(=O)NCC1CCCO1)c1ccc(N(C)C)cc1` (stereo not given), the IC50 in [14] is on record as 13.6 µM (not active); in experiment [15], > 111 µM (not active).

Consider `Cc1ccc([N+](=O)[O-])cc1-c1[nH]c(-c2ccc(O)c(O)c2)nc1-c1ccccc1`, for which the IC50 against Procathepsin L is > 59.6 µM (not active); at Aspartyl aminopeptidase it was 1.69 µM (active). Further, the results for the EC50 in [16] and in experiment [17] were > 38 µM (not active) and 57.8 µM (active), respectively.

As to `O=C(NC(=S)Nc1ccc(S(=O)(=O)Nc2nccs2)cc1)c1cccnc1`, in [13], the EC50 was > 50 µM (active). Besides, the IC50 in experiment [18] and in experiment [19] was > 66 µM (inactive) throughout.

On to `CC1CCCC(C)N1S(=O)(=O)c1ccc(NC(=O)CCn2cnc3ccccc3c2=O)cc1` (stereo not given), for which the IC50 in experiment [14] is on record as 16.4 µM (not active); in [15] it was > 111 µM (not active).

As to `Cc1ncc(CO)c(/C=N/NC(=O)c2cc(O)c(O)c(O)c2)c1O`, the EC50 in experiment [20] is 71.2 µM (active). For the same compound, the IC50 at Large T antigen was 3.72 µM (active); in [21], 4.5 µM (active).

With `O=[N+]([O-])c1cccc(/N=C/C2=C(O)c3ccccc3CC2)c1`, the IC50 is > 50 µM (not active) in experiment [22] and 10.3 µM (active) in experiment [21]. In addition, at Protein RecA, the concentration for a half-maximal effect (EC50) is 10.6 µM (active). The AC50 in experiment [23] was > 380 µM (inactive).

The values above are taken from ChEMBL document CHEMBL1201862, “PubChem BioAssay data set” (2004).
